Each structure is given as a SMILES string.

Data set [1] is described as follows: Stability in simulated gastric and intestinal fluids. Type of data set: in vitro ADME. Particulars: 100 μM, 2 hours at 37° C., percent of peak area at time zero. As for the experimental part:
Simulated gastric and intestinal fluids containing pepsin and pancreatin respectively were prepared according to the U.S. Pharmacopoeia USP291 procedure (www.pharmacopeia.cn/v29240/usp29nf24s0_ris1s126.html). Test compound (final concentration 100 μM) was incubated in duplicate in the appropriate fluid for 2 hours at 37° C. The samples were quenched with 200 μl cold acetonitrile, vortexed for 30 seconds and then centrifuged at 16,100 g for 10 min. The supernatants were analyzed by HPLC on a C-18 column with UV detection at 252 nm. The time 0 samples were prepared by adding SGF or SIF fluid to the quenching solvent followed by the test compound. Stability of the compound was determined by peak area the test compound after incubation and calculated as percent of the peak area observed at time zero.

The nature of data set [2]: Stability in liver and intestinal subcellular fractions (microsomes and S9). Particulars: 10 μM, NADPH, 60 min, percent unchanged. In kind it is in vitro ADME, human. As for the experimental part:
Stability of test compounds were determined in subcellular fractions (microsomes and S9) of human liver and intestine in duplicate for each matrix. Pooled liver and intestinal microsomal, intestinal and liver S9 proteins (1.0 mg/mL), suspended in incubation buffer (100 mM potassium phosphate, pH […], and 0.1 mM EDTA), were preincubated for 5 min at 37° C. with 10 μM of a test compound from a 10 mM stock solution in DMSO (final DMSO concentration was 0.1%); the reaction was initiated by the addition of NADPH (3 mM final concentration). At specific times (0 and 60 min), 0.1 mL samples were taken and the reaction terminated by the addition of 4 volumes of stop solution (acetonitrile with 500 ng/mL carbutamide as an internal standard). The samples were vortexed for 30 sec and then centrifuged at 16,000 g for 10 min. 100 μL of supernatants were transferred to 96 deep-well plates preloaded with 100 μL distilled water and analyzed after mixing by LC-MS/MS. The MS peak area ratio of the test compound versus the internal standard was calculated and percent unchanged test compound over 60 minutes was calculated using this ratio.

The test system of data set [3] is HCV genotype 1b replicon. Kind of data set: HCV Replicon Assay (Zluc luciferase reporter). Type of data set: cell-based. As for the experimental part:
Huh-7-derived cell line (Zluc) that harbors an HCV genotype 1b replicon and a luciferase reporter gene was grown in Dulbecco's Modified Eagle Medium (DMEM) supplemented with 10% fetal bovine serum, 2 mM GlutaMAX, 1% MEM nonessential amino acids, 100 IU/mL penicillin, 100 μg/mL streptomycin, and 0.5 mg/mL Geneticin® (G418). For dose response testing the cells were seeded in 96-well plates at 7.5×10^3 cells per well in a volume of […], and incubated at 37° C./5% CO2. Drug solutions were made up freshly in Huh-7 media as 2× stocks. […] 5-fold dilutions were prepared from these stocks in DMEM without G418. At least three hours after Zluc cells were seeded, drug treatment was initiated by adding 50 μL of drug dilutions to the plates in duplicate. Final concentrations of drug ranged from 100 μM to 0.0000512 μM. Cells were then incubated at 37° C./5% CO2. Alternatively, compounds were tested at two concentrations (1 μM and 10 μM). […] After 72 hours of incubation, the inhibition of HCV replication was measured by quantification of photons emitted after mono-oxygenation of 5′-fluoroluciferin to oxyfluoroluciferin by firefly luciferase. For this, media was removed from the plates via gentle tapping. Fifty microliters of ONE-glo luciferase assay reagent was added to each well. The plates were shaken gently for 3 min at room temperature and luminescence was measured on a Victor^3 V 1420 multilabel counter (Perkin Elmer) with a 1 second read time using a 700 nm cut-off filter. The EC50 values were calculated from dose response curves from the resulting best-fit equations determined by Microsoft Excel and XLfit 4.1 software. When screening at two fixed concentrations, the results were expressed as % inhibition at 1 μM and 10 μM.
On the technique in general: Replicon systems follow genome replication, usually without infectious particles.

A short description of data set [4]: Stability in rat whole blood. Type of data set: in vitro ADME.
Data set [5] in a line: Stability in fresh human whole blood. As to conditions: 0.5 μM, percent unchanged. In kind it is in vitro ADME. As for the experimental part: (§1) Stability of test compounds were determined in fresh human whole blood with K2EDTA as the anticoagulant (stored refrigerated at 2-8° C. and used within 7 days of receipt). The experiment was conducted with three replicates for each time point. Whole blood, pre-incubated at 37° C. for 10-15 minutes, was fortified with a solution of test compound for a final concentration of 0.5 μM and mixed for 30 sec. At intervals (0, 0.5, 1 and 2 hr), three […] aliquots were combined with 200 μL (each) of an ice-cold solution of the internal standard (carbutamide 500 ng/mL in acetonitrile). The samples were vortexed for 30 sec and then centrifuged at 16,100 g for 5 min. The supernatant was analyzed by LC-MS/MS. The MS peak area ratio of the test compound versus the internal standard was calculated and percent unchanged test compound was calculated for each time point using this ratio.

Data set [6] is described as follows: Stability in mouse blood. As to conditions: mouse whole blood, on ice, percent unchanged. Type of data set: in vitro ADME. As for the experimental part: as §1
The stability in mouse blood was determined on ice at 0, 0.5 and 1 hr as above.

Data set [7] has as its system fresh human hepatocytes. Kind of data set: Release of active metabolite in fresh human hepatocytes. Particulars: 10 μM. In kind it is in vitro ADME. As for the experimental part:
Plates of fresh human and mouse hepatocytes were obtained on ice. The medium was removed and replaced with hepatocyte culture medium (William's E supplemented with penicillin-streptomycin, 1% L-glutamine, 1% insulin-transferrin-selenium and 0.1 μM Dexamethasone (Invitrogen) or with Invitro GRO HI medium complemented with Torpedo antibiotics (Celsis)). Cells were left overnight in an incubator at 37° C. to acclimatize to culture and the medium.
Hepatocyte incubations were conducted at a final volume of 0.5 mL hepatocyte culture medium/well (0.8 million cells/well for human and 0.5 million cells/well for mouse; 12 well plate no overlay, collagen coat). Culture medium from overnight incubation of cells was removed and replaced with fresh medium, pre-warmed to 37° C., containing 10 μM of test compound from a stock solution in DMSO (final DMSO concentration was 0.1%). At each specific time point, incubation medium was removed and cell monolayers were carefully washed two times with ice-cold PBS. Following the last wash, all PBS was carefully removed and 1.0 mL of extraction solution (ice-cold 70% methanol/30% water) added. Cells were scraped off and suspended in the extraction solution, transferred to 2 mL polypropylene microfuge tubes and intracellular contents extracted overnight at −20° C.
After the overnight treatment the cellular extracts were prepared by centrifugation at 16,000×g for 10 min to remove cellular debris. The remaining sample was then dried using a refrigerated centrivap concentrator. Dry extracts were reconstituted in 1000 μL of HPLC-grade water and centrifuged at 16,000×g for 10 min. Aliquots (100 μL each) of the supernatant were transferred into a 96 well plate and internal standard (4 ng/mL final concentration) was added as the internal standard (IS) for LC-MS/MS analysis.
The incubation time points were 6, 24 and 48 hours for human hepatocytes and 1, 4, 8, 12 and 24 hours for mouse hepatocytes.

The subject of data set [8] is Zluc cells. Nature of the data set: Cytotoxicity evaluation, CellTiter-Blue Cell Viability Assay. Type of data set: cell-based. As to conditions: read-out: HCV Replicon CC50. As for the experimental part: For cytotoxicity evaluation, Zluc cells were treated with compound as described above, and cell viability was monitored using the CellTiter-Blue Cell Viability Assay (Promega) by adding 20 μL of the assay solution to each well. The plates were then incubated at 37° C./5% CO2 for at least 3 hours.
Background: Resazurin is reduced to fluorescent resorufin, in cell work by metabolically active cells.

Usually EC50 stands for the concentration giving half of the maximal effect. As a reminder, the CC50 is the concentration that lowers cell viability or growth by half. For `CCOc1nc(N)nc2c1ncn2[C@@H]1O[C@@H]2COP(=O)(OC(C)C)O[C@H]2[C@@]1(C)O` (single isomer, unassigned) [Compound 1b], in data set [1] (simulated gastric fluid with pepsin), the “Stability SGF” value is listed as 99%. For the same compound, in data set [1] (simulated intestinal fluid with pancreatin), the “Stability SIF” value is recorded as 101%. Besides, the “Stability HIS9 (1 hr)” value in data set [2] (HIS9 1.0 mg/mL) is reported as 104%. Also, in data set [2] (human intestinal microsome 1.0 mg/mL), the “Stability HIM (1 hr)” value worked out at 102%. Besides, the “Stability HLS9 (1 hr)” value in data set [2] (human liver S9 fraction 1.0 mg/mL) amounted to 112%. Besides, the “Stability HLM (1 hr)” value in data set [2] (human liver microsome 1.0 mg/mL) was determined as 96%. Moreover, the selectivity index entry in data set [3] (HCV replicon assay, Zluc cells) was “greater than 80”. Besides, in data set [3] (Zluc cells (Huh-7-derived, HCV genotype 1b replicon, luciferase reporter), 72 hours), the EC50 lay in the range of 1 to 10 µM. Further, the “Stability WB_Rat (ice; 1 hr)” value in data set [4] is 96%. Besides, the “Stability WB_Human (37° C.; 2 hr)” value in data set [5] is given as 103%. Also, the “Stability WB_Mouse (ice; 1 hr)” value in data set [6] stood at 96%. Besides, the “FHH TP (6 hr)” value in data set [7] (6 hr) is on record as “BLD^a”. Besides, the “FHH TP (24 hr)” value in data set [7] (24 hr) is reported as “BLD^a”. The CC50 in data set [8] is over 50 µM.

Source of the values: patent US8507460B2, “Substituted 3′,5′-cyclic phosphates of purine nucleotide compounds and pharmaceutical compositions for the treatment of viral infections” (priority 2011, dated 2013).
